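Method: 48-hour compound exposure of cells in 96-well plates, five concentrations, linear interpolation of endpoints. Here, GI50 denotes the concentration required for 50% inhibition of growth.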 Activity calls are given as the source filed them. No stated cut-off is given here; in the data, active = GI50 up to about 1.1 µM and inactive = higher.
Assays:
Assay in all cases: NCI anticancer screen, dose series, 48 h
[1] = tested on: HOP-92
[2] = tested on: ACHN
[3] = tested on: LOX IMVI
[4] = tested on: UACC-62
[5] = tested on: Malme-3M
[6] = tested on: KM12
[7] = tested on: SW-620
[8] = tested on: MOLT-4
[9] = tested on: SF-268
[10] = tested on: OVCAR-4
[11] = tested on: CAKI-1
[12] = tested on: HOP-62
[13] = tested on: K562
[14] = tested on: CCRF-CEM
[15] = tested on: HL-60
[16] = tested on: NCI-H522
[17] = tested on: SK-OV-3

Measured: GI50

NCC1(N2CCOCC2)C2CCCC21CNc1ccccc1 (stereo unspecified)
inactive: [1] 41.9 µM | [2] > 100 µM | [3] > 100 µM | [4] > 100 µM | [5] > 100 µM | [6] > 100 µM | [7] > 100 µM | [8] 92.3 µM | [9] > 100 µM | [10] > 100 µM | [11] > 100 µM | [12] > 100 µM | [13] 90.6 µM | [14] > 100 µM | [15] 53.8 µM | [16] > 100 µM

Cc1cc2c(=O)c(C)n[nH]c2c(C#N)c1C
inactive: [1] 29.4 µM | [2] > 100 µM | [3] > 100 µM | [4] > 100 µM | [5] > 100 µM | [7] > 100 µM | [17] > 100 µM | [8] > 100 µM | [9] > 100 µM | [12] > 100 µM | [14] > 100 µM | [15] > 100 µM

CSC1=Nc2ccccc2N=C(c2ccc(Cl)cc2)C1
inactive: [2] 36.6 µM | [3] 27.1 µM | [4] 42.8 µM | [5] 35.2 µM | [6] 36.8 µM | [7] 39.1 µM | [17] 73.3 µM | [8] 21.7 µM | [9] 42.3 µM | [10] > 100 µM | [11] 22 µM | [12] > 100 µM | [13] 34.8 µM | [14] 27.9 µM | [15] 35.3 µM | [16] 43.1 µM

C=C(C#N)C1OCC2OC(C)(C)OC21 (stereo unspecified)
inactive: [1] 24 µM | [2] 20.7 µM | [3] 15 µM | [4] 17.3 µM | [6] 33.3 µM | [7] 19 µM | [17] 50.6 µM | [8] 15.7 µM | [9] 23.8 µM | [10] 19.4 µM | [11] 23.4 µM | [12] > 100 µM | [13] 28.1 µM | [14] 16.5 µM | [15] 18.2 µM

CC1=NN(C(=O)CC(=O)Nc2ccccc2F)C(=O)C1/N=N/c1ccccc1[N+](=O)[O-] (stereo unspecified)
inactive: [4] 26.2 µM | [5] > 100 µM | [6] > 100 µM | [7] > 100 µM | [17] > 100 µM | [8] 73.8 µM | [9] > 100 µM | [10] 70.6 µM | [11] 75.5 µM | [12] > 100 µM | [13] > 100 µM | [14] 79.6 µM | [16] 51.8 µM

C=C1CN2CCc3c([nH]c4ccccc34)C2CC1CC(=O)N(C)C (stereo unspecified)
inactive: [1] 126 µM | [2] > 309 µM | [3] > 309 µM | [4] > 309 µM | [5] > 309 µM | [6] > 309 µM | [7] > 309 µM | [17] > 309 µM | [8] > 309 µM | [9] > 309 µM | [11] > 309 µM | [12] > 309 µM | [13] > 309 µM | [14] > 309 µM | [15] > 309 µM | [16] > 309 µM

O=C(O)CC12C3C4C5C3C1C5C42 (stereo unspecified)
inactive: [2] > 100 µM | [3] > 100 µM | [4] > 100 µM | [5] > 100 µM | [6] > 100 µM | [7] > 100 µM | [17] > 100 µM | [8] > 100 µM | [9] > 100 µM | [10] > 100 µM | [11] > 100 µM | [12] > 100 µM | [13] > 100 µM | [14] > 100 µM | [15] > 100 µM | [16] > 100 µM

CC(=O)OC1COC(n2ccc3cc(Br)c([N+](=O)[O-])cc32)C(OC(C)=O)C1OC(C)=O (stereo unspecified)
inactive: [1] 9.44 µM | [2] 27.6 µM | [3] 20.1 µM | [4] 17.6 µM | [5] 24.2 µM | [6] 34.2 µM | [7] 39.5 µM | [17] 31.8 µM | [8] > 10 µM | [9] 33.4 µM | [10] > 10 µM | [11] 33.7 µM | [12] 30.5 µM | [13] 29.6 µM | [14] 21.1 µM | [16] > 10 µM

CC1(Cl)C(=O)NC(=O)N(C2CC(N=[N+]=[N-])C(CO)O2)C1N=[N+]=[N-] (stereo unspecified)
inactive: [1] > 100 µM | [2] > 100 µM | [3] > 100 µM | [4] > 100 µM | [5] > 100 µM | [6] > 100 µM | [7] > 100 µM | [17] > 100 µM | [8] > 100 µM | [9] > 100 µM | [10] > 100 µM | [11] > 100 µM | [12] > 100 µM | [13] > 100 µM | [14] > 100 µM | [15] > 100 µM | [16] > 100 µM

O=C/C1=C/C2=Cc3ccccc3C=C(/C=C(/C=O)C1)C2
inactive: [1] 27.7 µM | [2] > 100 µM | [3] 33.9 µM | [4] 73.6 µM | [5] 90.4 µM | [6] 36.1 µM | [7] 44.7 µM | [8] 15.8 µM | [9] 38.1 µM | [10] 46.7 µM | [11] 41.1 µM | [12] 74.8 µM | [13] 18.1 µM | [14] 16.2 µM | [15] 41.5 µM | [16] > 100 µM

CCN(CC)c1c(C)nnn1C1OC(COC(C)=O)C(OC(C)=O)C(OC(C)=O)C1OC(C)=O (stereo unspecified)
inactive: [1] 70.8 µM | [2] > 100 µM | [4] > 100 µM | [5] > 100 µM | [6] > 100 µM | [7] 15 µM | [17] > 100 µM | [8] > 100 µM | [9] > 100 µM | [10] > 100 µM | [11] > 100 µM | [12] > 100 µM | [13] > 100 µM | [14] > 100 µM | [15] > 100 µM | [16] > 100 µM

O=C1OC(c2ccccc2)=N/C1=C/N1CCCC1C(=O)O (stereo unspecified)
inactive: [1] > 100 µM | [2] > 100 µM | [3] > 100 µM | [4] > 100 µM | [5] > 100 µM | [6] > 100 µM | [7] > 100 µM | [17] > 100 µM | [9] > 100 µM | [10] > 100 µM | [11] > 100 µM | [12] > 100 µM | [13] > 100 µM | [14] > 100 µM | [15] > 100 µM | [16] > 100 µM

CO[C@@H]1C=C[C@@]23c4cc5c(cc4CN(C[C@@H]2O)[C@H]3C1)OCO5 [(+)-HAEMANTHAMINE]
inactive: [1] 14.3 µM | [2] 5.13 µM | [3] 6.38 µM | [4] 12.9 µM | [5] 14.6 µM | [6] 13.5 µM | [7] 15.5 µM | [17] 19.5 µM | [8] 6.47 µM | [9] 29.7 µM | [10] 3.85 µM | [11] 6.22 µM | [13] 7.67 µM | [14] 8.34 µM | [15] 14 µM | [16] 12.1 µM
